Assay [1] deals with T1, Recombinant Src enzyme (Homo sapiens, UniProt P12931).
T1 construct: purchased Millipore 14-326; host or cells: Sf21 insect cells
Briefly: Src HTRF assay. Type of assay: biochemical. The method, boiled down:
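Sf21-expressed recombinant Src at 5 nM final with biotinylated N-terminally tagged Tyk2 peptide substrate at 0.5 μM final; a component freshly made in enzyme assay buffer pH7.4 was used at 10 μM final. Buffer, supplements, compound handling and procedure as in the FAK HTRF assay; dasatinib included.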
In general terms: Time-resolved FRET reads energy transfer from a long-lived donor to a nearby acceptor.

The target in assay [2] is T2, AURKB (Aurora B) enzyme (Homo sapiens, UniProt Q96GD4).
T2 construct: purchased Invitrogen PVR 130
T2 sequence (Q96GD4 whole entry): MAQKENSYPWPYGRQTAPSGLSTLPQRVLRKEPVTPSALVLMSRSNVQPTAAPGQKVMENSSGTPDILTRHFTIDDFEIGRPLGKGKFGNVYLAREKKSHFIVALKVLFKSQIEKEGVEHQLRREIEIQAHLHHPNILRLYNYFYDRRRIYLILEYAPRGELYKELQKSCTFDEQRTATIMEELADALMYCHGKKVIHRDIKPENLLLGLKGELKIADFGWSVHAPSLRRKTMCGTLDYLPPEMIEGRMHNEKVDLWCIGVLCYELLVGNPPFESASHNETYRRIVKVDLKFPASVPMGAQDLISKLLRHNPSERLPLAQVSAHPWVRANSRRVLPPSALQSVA
The assay is described as follows: Aurora B HTRF assay. To be noted: read-out: AuroraB IC50. Type of assay: biochemical. The method, boiled down: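 HTRF kinase assay with 5 nM Aurora B and 50 nM ULight-PLK (Ser137) peptide, with a reagent at 30 μM final; 1 h at rt. Reaction stopped with EDTA, and phospho-peptide detected with 2 nM Eu-anti-P-PLK(Ser137) antibody after 1 h at rt, read as HTRF.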

Assay [3] concerns the target JAK2 (Homo sapiens, UniProt O60674). Briefly: JAK2 biochemical potency. To be noted: read-out: JAK2 HTRF IC50.
In assay [4] the target is T3, recombinant human FAK1 (Homo sapiens, UniProt Q05397).
T3 construct: fused on or other part: N-terminal 6xHis tag
T3 sequence (Q05397 422-680 limits assumed): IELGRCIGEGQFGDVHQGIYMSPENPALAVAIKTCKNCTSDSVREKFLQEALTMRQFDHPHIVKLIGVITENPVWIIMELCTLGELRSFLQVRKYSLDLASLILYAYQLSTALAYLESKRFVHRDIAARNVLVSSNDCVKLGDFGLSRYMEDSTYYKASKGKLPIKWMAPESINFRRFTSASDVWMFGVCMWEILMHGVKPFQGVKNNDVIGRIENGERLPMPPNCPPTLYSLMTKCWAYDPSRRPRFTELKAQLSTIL
The assay is described as follows: FAK1 HTRF assay. It is filed as biochemical. In short, it runs like this:
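His-tagged human FAK1 (residues 692–end, Sf9-expressed), 10 nM final, with 0.5 μM biotinylated gastrin-precursor Tyr87 peptide and a 10 μM final reagent in pH 7.4 buffer, 45 min at rt. Detection used Eu anti-pTyr antibody plus SA-APC (665/620 nm). Compounds top concentration 10 μM; IC50 from % inhibition.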

The results in this text go back to patent US20160222014A1, “COMPOUNDS FOR REGULATING FAK AND/OR SRC PATHWAYS” (ASANA BIOSCIENCES, LLC, priority 2013, published 2016).

Sequence of JAK2 (O60674 whole entry, species assumed): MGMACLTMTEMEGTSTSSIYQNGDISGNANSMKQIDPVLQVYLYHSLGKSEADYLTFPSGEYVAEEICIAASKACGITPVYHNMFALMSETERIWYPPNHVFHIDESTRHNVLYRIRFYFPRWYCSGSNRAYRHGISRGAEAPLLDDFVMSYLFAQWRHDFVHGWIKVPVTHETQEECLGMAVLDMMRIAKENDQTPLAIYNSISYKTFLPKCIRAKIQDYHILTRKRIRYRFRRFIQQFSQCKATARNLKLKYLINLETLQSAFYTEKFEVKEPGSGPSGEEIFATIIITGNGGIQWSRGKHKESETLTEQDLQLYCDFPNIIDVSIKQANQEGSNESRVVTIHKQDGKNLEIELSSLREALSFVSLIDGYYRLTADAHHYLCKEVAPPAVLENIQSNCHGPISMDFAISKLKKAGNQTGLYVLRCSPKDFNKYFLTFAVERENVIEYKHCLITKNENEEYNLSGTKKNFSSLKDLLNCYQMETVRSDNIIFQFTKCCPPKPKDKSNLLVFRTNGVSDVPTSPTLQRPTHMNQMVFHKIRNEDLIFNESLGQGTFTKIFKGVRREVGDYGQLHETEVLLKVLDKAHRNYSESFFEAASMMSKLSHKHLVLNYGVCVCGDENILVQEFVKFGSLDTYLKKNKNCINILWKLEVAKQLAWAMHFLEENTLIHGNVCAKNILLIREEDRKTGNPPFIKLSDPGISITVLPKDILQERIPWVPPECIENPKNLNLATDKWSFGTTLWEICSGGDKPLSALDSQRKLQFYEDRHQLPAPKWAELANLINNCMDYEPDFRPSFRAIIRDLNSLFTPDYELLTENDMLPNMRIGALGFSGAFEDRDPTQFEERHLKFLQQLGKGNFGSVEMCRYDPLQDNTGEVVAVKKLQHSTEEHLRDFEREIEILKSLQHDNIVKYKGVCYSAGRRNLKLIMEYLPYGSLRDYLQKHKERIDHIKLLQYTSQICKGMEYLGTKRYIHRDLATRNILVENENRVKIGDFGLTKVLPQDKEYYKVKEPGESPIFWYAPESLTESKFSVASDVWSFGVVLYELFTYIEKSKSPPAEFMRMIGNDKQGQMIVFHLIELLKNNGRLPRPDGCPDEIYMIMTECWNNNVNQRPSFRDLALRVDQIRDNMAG
T1 sequence (P12931 whole entry): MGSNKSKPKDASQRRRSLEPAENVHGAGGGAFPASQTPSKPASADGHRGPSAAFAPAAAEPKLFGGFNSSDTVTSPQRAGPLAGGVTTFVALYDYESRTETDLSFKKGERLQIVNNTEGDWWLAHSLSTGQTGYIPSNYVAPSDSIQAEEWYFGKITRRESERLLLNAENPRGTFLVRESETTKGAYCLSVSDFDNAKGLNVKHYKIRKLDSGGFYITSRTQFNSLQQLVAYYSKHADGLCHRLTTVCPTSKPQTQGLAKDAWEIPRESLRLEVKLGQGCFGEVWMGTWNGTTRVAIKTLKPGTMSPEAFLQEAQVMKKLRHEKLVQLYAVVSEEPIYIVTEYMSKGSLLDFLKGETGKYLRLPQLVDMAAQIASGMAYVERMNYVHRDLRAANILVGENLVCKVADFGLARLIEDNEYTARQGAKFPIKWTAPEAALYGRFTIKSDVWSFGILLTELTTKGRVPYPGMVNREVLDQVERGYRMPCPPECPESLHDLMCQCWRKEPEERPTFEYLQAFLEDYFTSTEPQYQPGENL

One may read the IC50 as the midpoint of a concentration-inhibition curve. As to `CC(=O)Nc1cccc(Nc2cc3c(ccn3S(=O)(=O)c3ccccc3OC(F)(F)F)cn2)c1` [Example 58], the IC50 in assay [1], in assay [2] and in assay [3] was > 1000 nM each time.
Consider `COc1cc(N2CCN(CCO)CC2)ccc1Nc1ncc2ccn(S(=O)(=O)c3cccc4cccnc34)c2n1` [Example 347], for which the IC50 in assay [1] was > 1000 nM; in assay [4] it was < 20 nM; in assay [3], > 1000 nM.
`CC(=O)Nc1ccc(Nc2cc3c(cn2)cnn3Cc2cccnc2N(C)S(C)(=O)=O)cc1` [Example 66]: the half-inhibitory concentration (IC50) in assay [1], in assay [2] and in assay [3] was > 1000 nM each time.
Consider `Cc1cc(Nc2ncc3ccn(Cc4cccnc4N(C)S(C)(=O)=O)c3n2)ccc1N1CCNCC1` [Example 197], for which the IC50 in assay [1], in assay [2] and in assay [3] was < 20 nM throughout.
In the case of `O=c1[nH]c2ccc(Nc3ncc4ccn(S(=O)(=O)c5ccccc5OC(F)F)c4n3)cc2[nH]1` [Example 180], the 50% inhibitory concentration (IC50) in assay [2], in assay [4] and in assay [3] was < 20 nM in each case.
Consider `O=c1[nH]c2ccc(Nc3cc4c(ccn4S(=O)(=O)c4ccccc4OC(F)(F)F)cn3)cc2[nH]1` [Example 118], for which the IC50 is > 1000 nM in assay [1], < 20 nM in assay [2], < 20 nM in assay [4] and > 1000 nM in assay [3].
`O=S(=O)(c1cccc2cccnc12)n1ccc2cnc(Nc3ccc(N4CC5CC4CN5)cc3)nc21` (stereo not drawn) [Example 246]: the IC50 in assay [2], in assay [4] and in assay [3] was < 20 nM each time.
For the compound `COc1ccccc1S(=O)(=O)n1ccc2cnc(Nc3ccc(N4CCNCC4)cc3)nc21` [Example 333], the IC50 in assay [2], in assay [4] and in assay [3] was < 20 nM throughout.
Consider `CN(c1ncccc1Cn1ccc2cnc(Nc3ccc4c(c3)CCC(=O)N4)nc21)S(C)(=O)=O` [Example 5], for which the IC50 in assay [1], in assay [2], in assay [4] and in assay [3] was < 20 nM throughout.
`COc1cc(N2CCNCC2)ccc1Nc1ncc2ccn(S(=O)(=O)c3ccccc3C#N)c2n1` [Example 336]: the IC50 in assay [1] was > 1000 nM; in assay [4] it was < 20 nM; in assay [3], > 1000 nM.
Take `COc1cc(Nc2cc3c(ccn3S(=O)(=O)c3ccccc3C#N)cn2)ccc1N1CCNCC1` [Example 391]: the IC50 in assay [2] was < 20 nM; in assay [4] it was < 20 nM; in assay [3], > 1000 nM.
`C[C@H]1CN(c2ccc(Nc3ncc4ccn(Cc5ccccc5N(C)S(C)(=O)=O)c4n3)cc2)CCN1` [Example 467]: the IC50 in assay [2], in assay [4] and in assay [3] was < 20 nM in each case.
As for `O=S(=O)(c1cccc2cccnc12)n1ccc2cnc(Nc3ccc(CN4CCNCC4)cc3)nc21` [Example 244], the 50% inhibitory concentration (IC50) in assay [2], in assay [4] and in assay [3] was < 20 nM in each case.
Regarding `CC(=O)Nc1cccc(Nc2cc3c(cn2)c(C)nn3Cc2ccccc2OC(F)F)c1` [Example 78], the concentration for half-maximal inhibition (IC50) in assay [1], in assay [4] and in assay [3] was > 1000 nM in each case.
For the compound `COc1ccccc1S(=O)(=O)n1ccc2cnc(Nc3ccc4c(c3)CCC(=O)N4)nc21` [Example 106], the IC50 in assay [2], in assay [4] and in assay [3] was < 20 nM throughout.
Consider `COc1cc(Nc2cc3c(ccn3S(=O)(=O)c3cccc4cccnc34)cn2)ccc1N1CCNCC1` [Example 328], for which the IC50 in assay [2] was < 20 nM; in assay [4], < 20 nM; in assay [3] it was > 1000 nM.
Consider `C[C@@H]1CN(c2ccc(Nc3ncc4ccn(Cc5ccccc5N(C)S(C)(=O)=O)c4n3)cc2)CCN1` [Example 448, (R)—N-methyl-N-(2-((2-((4-(3-methylpiperazin-1-yl)phenyl)amino)-7H-pyrrolo[2,3-d]pyrimidin-7-yl)methyl)phenyl)methanesulfonamide], for which the IC50 in assay [2], in assay [4] and in assay [3] was < 20 nM in each case.
Turning to `O=S(=O)(c1cccc2cccnc12)n1ccc2cnc(Nc3ccc(N4CCNCC4)c(F)c3)nc21` [Example 194], the concentration for half-maximal inhibition (IC50) in assay [1], in assay [2], in assay [4] and in assay [3] was < 20 nM throughout.
As to `CC(=O)Nc1ccc(Nc2cc3c(cn2)c(C)nn3Cc2ccccc2OC(F)F)cc1` [Example 81], the IC50 in assay [1], in assay [4] and in assay [3] was > 1000 nM in each case.
For `O=S(=O)(c1cccc2cccnc12)n1ccc2cnc(Nc3ccc(CN4CCC(F)(F)CC4)cc3)nc21` [Example 248], the half-maximal inhibitory concentration (IC50) in assay [2], in assay [4] and in assay [3] was < 20 nM each time.
With `CC(=O)Nc1ccc(Nc2cc3c(ccn3S(=O)(=O)c3cccc(OC(F)(F)F)c3)cn2)cc1` [Example 54], the IC50 in assay [1] and in assay [3] was > 1000 nM throughout.
Take `O=S(=O)(c1ccccc1OC(F)(F)F)n1ccc2cnc(Nc3ccc(N4CCOCC4)cc3)cc21` [Example 113]: the IC50 in assay [1] is > 1000 nM; in assay [2] it was < 20 nM; in assay [3] it was > 1000 nM.
Take `O=S(=O)(c1cccc2cccnc12)n1ccc2cnc(Nc3ccc(N4CCNCC4)cc3)nc21` [Example 193]: the IC50 in assay [2], in assay [4] and in assay [3] was < 20 nM in each case.
On to `CC(=O)Nc1cccc(Nc2cc3c(ccn3S(=O)(=O)c3cccc(OC(F)(F)F)c3)cn2)c1` [Example 55], for which the IC50 in assay [1], in assay [2] and in assay [3] was > 1000 nM each time.
On to `N#Cc1ccccc1S(=O)(=O)n1cc(F)c2cnc(Nc3ccc(N4CCNCC4)cc3)nc21` [Example 319], for which the IC50 in assay [2], in assay [4] and in assay [3] was < 20 nM in each case.
On to `CN(c1ccccc1Cn1ccc2cnc(Nc3ccc(N4CCNCC4)cc3)nc21)S(C)(=O)=O` [Example 214], for which the half-maximal inhibitory concentration (IC50) in assay [1], in assay [4] and in assay [3] was < 20 nM in each case.
`N#Cc1ccccc1S(=O)(=O)n1ncc2cnc(Nc3ccc4c(c3)CCC(=O)N4)nc21` [Example 220]: the half-maximal inhibitory concentration (IC50) in assay [1], in assay [2] and in assay [3] was < 20 nM in each case.
As for `Cc1cc(S(=O)(=O)n2ccc3cnc(Nc4ccc(N5CCNCC5)cc4)nc32)c2ncccc2c1` [Example 357], the half-maximal inhibitory concentration (IC50) in assay [2], in assay [4] and in assay [3] was < 20 nM in each case.
For the compound `COc1cc(N2CCNCC2)ccc1Nc1ncc2ccn(Cc3cccnc3N(C)S(C)(=O)=O)c2n1` [Example 337], the IC50 in assay [1] is > 1000 nM; in assay [4], < 20 nM; in assay [3], > 1000 nM.
As for `C[C@@H]1CN(c2ccc(Nc3ncc4ccn(S(=O)(=O)c5cccc6cccnc56)c4n3)cc2)CCN1` [Example 213], the concentration for half-maximal inhibition (IC50) in assay [1], in assay [2], in assay [4] and in assay [3] was < 20 nM throughout.
For the compound `CN(C)Cc1ccc(Nc2ncc3ccn(S(=O)(=O)c4cccc5cccnc45)c3n2)cc1` [Example 205], the IC50 in assay [2], in assay [4] and in assay [3] was < 20 nM in each case.
For `O=S(=O)(c1cccc2cccnc12)n1ccc2cnc(Nc3ccc(N4CCN(CCO)CC4)cc3)nc21` [Example 311], the half-maximal inhibitory concentration (IC50) in assay [1], in assay [2], in assay [4] and in assay [3] was < 20 nM each time.
For the compound `O=S(=O)(c1ccccc1OC(F)F)n1ccc2cnc(Nc3ccc(N4CCNCC4)cc3)nc21` [Example 184], the IC50 in assay [2], in assay [4] and in assay [3] was < 20 nM in each case.
As for `N#Cc1ccccc1S(=O)(=O)n1ccc2cnc(Nc3ccc(N4CCNCC4)cc3)cc21` [Example 314], the IC50 in assay [2], in assay [4] and in assay [3] was < 20 nM each time.
`CN(c1ncccc1Cn1ccc2cnc(Nc3ccc(C4=CCNCC4)cc3)nc21)S(C)(=O)=O` [Example 206]: the IC50 in assay [1], in assay [2] and in assay [3] was < 20 nM in each case.
Regarding `COc1cc(N2CCNCC2)ccc1Nc1cc2c(ccn2S(=O)(=O)c2ccccc2C#N)cn1` [Example 348], the IC50 in assay [1] was > 1000 nM; in assay [4] it was < 20 nM; in assay [3], > 1000 nM.
`COc1cc(N2CCC(O)CC2)ccc1Nc1ncc2ccn(S(=O)(=O)c3cccc4cccnc34)c2n1` [Example 356]: the IC50 in assay [1] is > 1000 nM; in assay [2], < 20 nM; in assay [4], < 20 nM; in assay [3], > 1000 nM.
In the case of `COc1cc(N2CCNCC2)ccc1Nc1ncc2c(n1)N(S(=O)(=O)c1cccc3cccnc13)CC2(C)C` [Example 446], the 50% inhibitory concentration (IC50) in assay [1] was > 1000 nM; in assay [2], > 1000 nM; in assay [4] it was < 20 nM; in assay [3] it was > 1000 nM.
Regarding `Cc1nn(Cc2ccccc2OC(F)F)c2cc(Nc3ccc4c(c3)CCC(=O)N4)ncc12` [Example 80], the IC50 in assay [1], in assay [2] and in assay [3] was > 1000 nM each time.
